The target in series [1] is T1, MMP-2 (Homo sapiens, UniProt P08253).
T1 sequence (P08253 110-660): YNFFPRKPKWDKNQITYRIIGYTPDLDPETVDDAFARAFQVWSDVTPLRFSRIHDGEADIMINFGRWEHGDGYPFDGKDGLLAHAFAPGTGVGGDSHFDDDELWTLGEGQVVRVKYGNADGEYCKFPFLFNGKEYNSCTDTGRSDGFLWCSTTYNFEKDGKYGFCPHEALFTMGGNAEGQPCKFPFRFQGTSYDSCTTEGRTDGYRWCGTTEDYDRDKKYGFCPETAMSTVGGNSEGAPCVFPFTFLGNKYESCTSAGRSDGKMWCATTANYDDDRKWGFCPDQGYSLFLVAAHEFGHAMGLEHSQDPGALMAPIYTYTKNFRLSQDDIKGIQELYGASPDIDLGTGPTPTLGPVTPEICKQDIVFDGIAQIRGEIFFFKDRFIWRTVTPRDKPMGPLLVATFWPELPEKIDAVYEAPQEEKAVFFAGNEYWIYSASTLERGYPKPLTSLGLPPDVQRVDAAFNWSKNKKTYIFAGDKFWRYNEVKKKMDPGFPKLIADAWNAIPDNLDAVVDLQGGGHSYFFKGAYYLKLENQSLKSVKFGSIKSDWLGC

The next series addresses T2, MMP-1 (Homo sapiens, UniProt P03956).
T2 sequence (P03956 100-469): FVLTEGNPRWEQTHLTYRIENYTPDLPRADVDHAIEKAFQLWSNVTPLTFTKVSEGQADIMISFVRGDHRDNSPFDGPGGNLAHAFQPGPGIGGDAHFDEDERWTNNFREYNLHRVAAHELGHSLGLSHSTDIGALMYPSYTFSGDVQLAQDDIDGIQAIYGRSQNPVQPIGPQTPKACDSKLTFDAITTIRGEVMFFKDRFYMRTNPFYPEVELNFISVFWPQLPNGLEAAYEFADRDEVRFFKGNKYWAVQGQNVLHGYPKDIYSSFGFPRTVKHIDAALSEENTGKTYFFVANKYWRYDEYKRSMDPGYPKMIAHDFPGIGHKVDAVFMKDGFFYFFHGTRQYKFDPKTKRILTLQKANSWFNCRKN
Description: MMP inhibition fluorometric assay, MMP-1. The conditions noted are these: for ΔG exp MMP-1: experimental binding energy from activity data, racemic mixture tested.

The target in the next series is MMP-8 (Homo sapiens, UniProt P22894). Description: MMP inhibition fluorometric assay, MMP-8. To be noted: for ΔG exp MMP-8: experimental binding energy from activity data, racemic mixture tested.
A further series has as its target MMP-9 (Homo sapiens, UniProt P14780). Description: MMP inhibition fluorometric assay, MMP-9. The conditions noted are these: for ΔG exp MMP-9: experimental binding energy from activity data, racemic mixture tested.
Series [2] has as its target T1, MMP-2. The experiment in a line: biochemical.
[3] abbreviates: experimental binding energy from activity data, chiral compounds tested as racemic mixture.
Where [4] appears, read: ratio of IC50 values versus 25a.

The results in this text go back to publication PMC3608355, “Amino Acid Derivatives as New Zinc Binding Groups for the Design of Selective Matrix Metalloproteinase Inhibitors” (Journal of Amino Acids, 2013).

A word on the melting point: it is the temperature of the solid-liquid transition. What is called IC50 is the concentration that inhibits the measured activity by half.

Where a name gives a salt, the structure may show the parent alone. Read-outs that look alike come from different tables or passages of the source.

Sequence of MMP-9 (P14780 107-707 limits assumed): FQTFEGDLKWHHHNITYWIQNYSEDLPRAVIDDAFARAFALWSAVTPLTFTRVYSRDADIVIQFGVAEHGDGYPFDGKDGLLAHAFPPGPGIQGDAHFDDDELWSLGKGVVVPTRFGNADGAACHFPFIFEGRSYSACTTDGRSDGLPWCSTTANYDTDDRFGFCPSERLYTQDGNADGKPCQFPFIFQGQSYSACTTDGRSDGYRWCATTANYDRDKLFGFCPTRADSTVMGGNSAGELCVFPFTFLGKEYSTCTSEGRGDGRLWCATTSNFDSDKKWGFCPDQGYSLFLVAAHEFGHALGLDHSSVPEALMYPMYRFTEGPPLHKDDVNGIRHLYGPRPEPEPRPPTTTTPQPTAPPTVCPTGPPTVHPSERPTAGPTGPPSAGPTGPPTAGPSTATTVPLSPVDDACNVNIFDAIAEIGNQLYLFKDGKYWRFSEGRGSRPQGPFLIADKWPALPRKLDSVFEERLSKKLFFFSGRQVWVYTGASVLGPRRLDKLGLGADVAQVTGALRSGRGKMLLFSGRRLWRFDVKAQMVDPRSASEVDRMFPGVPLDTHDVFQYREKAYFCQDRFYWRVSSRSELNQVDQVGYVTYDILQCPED
Sequence of MMP-8 (P22894 101-467): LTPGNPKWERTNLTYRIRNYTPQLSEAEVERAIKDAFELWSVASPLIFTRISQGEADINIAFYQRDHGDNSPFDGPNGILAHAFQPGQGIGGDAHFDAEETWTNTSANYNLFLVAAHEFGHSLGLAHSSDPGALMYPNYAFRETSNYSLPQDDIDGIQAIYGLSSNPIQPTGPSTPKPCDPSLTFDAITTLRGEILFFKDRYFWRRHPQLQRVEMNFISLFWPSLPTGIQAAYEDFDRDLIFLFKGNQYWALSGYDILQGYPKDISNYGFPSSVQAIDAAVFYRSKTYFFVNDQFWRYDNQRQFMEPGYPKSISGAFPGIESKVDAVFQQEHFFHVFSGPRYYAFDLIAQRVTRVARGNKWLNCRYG

As to `NC(CS)Cc1c[nH]cn1` (centres unmarked) (as salt: TFA) [Compound 1g], the melting point lay within 196 to 198 °C.
As to `O=S(=O)(N[C@H](CO)CS)c1ccc(Oc2ccccc2)cc1` (racemic) [25d R], at MMP-2 [1] (setting [3]), the “ΔG exp (binding energy toward MMP-2)” value was -5.396 kcal. Moreover, at MMP-1, the “ΔG exp MMP-1” value is -4.224 kcal. Moreover, the “ΔG exp MMP-8” value at MMP-8 was -6.870 kcal. Also, the “ΔG exp MMP-9” value at MMP-9 is -6.705 kcal.
For `Cl.O=S(=O)(N[C@@H](CO)Cc1c[nH]cn1)c1ccc(Oc2ccccc2)cc1` (racemic) [25e R], in that order: -5.069 kcal, -4.524 kcal, -4.740 kcal and -5.042 kcal.
Turning to `N[C@H](CO)CS.O=C(O)C(F)(F)F` [1d R], on MMP-2 [1] (setting [3]), the “ΔG exp (binding energy toward MMP-2)” value is -4.319 kcal.
Same read-out and setting: the result for `N[C@@H](CO)CS.O=C(O)C(F)(F)F` [1d S] reads -4.319 kcal.
On to `N[C@@H](CO)Cc1c[nH]cn1.O=C(O)C(F)(F)F.O=C(O)C(F)(F)F` [1e R], for which the “ΔG exp (binding energy toward MMP-2)” value on MMP-2 [1] (setting [3]) was -4.565 kcal.
The same measure, in the same setting: in the case of `N[C@H](CO)Cc1c[nH]cn1.O=C(O)C(F)(F)F.O=C(O)C(F)(F)F` [1e S] it was -4.565 kcal.
The same measure, in the same setting: the result for `N#CC[C@@H](N)CS.O=C(O)C(F)(F)F` [1h R] reads -4.497 kcal; that for `N#CC[C@H](N)CS.O=C(O)C(F)(F)F` [1h S], -4.497 kcal.
For `N#CC[C@@H](N)CO.O=C(O)C(F)(F)F` [1i R], the “ΔG exp (binding energy toward MMP-2)” value on MMP-2 [1] (setting [3]) is -4.210 kcal.
Same read-out and setting: in the case of `N#CC[C@H](N)CO.O=C(O)C(F)(F)F` [1i S] it was -4.210 kcal; in that of `O=C(O)C(F)(F)F.O=C(O)C(F)(F)F.[N-]=[N+]=NC[C@H](N)Cc1c[nH]cn1` [1l R], -4.524 kcal.
As for `O=C(O)C(F)(F)F.O=C(O)C(F)(F)F.[N-]=[N+]=NC[C@@H](N)Cc1c[nH]cn1` [1l S], the “ΔG exp (binding energy toward MMP-2)” value on MMP-2 [1] (setting [3]) is -4.524 kcal.
Regarding `O=S(=O)(N[C@@H](CO)CS)c1ccc(Oc2ccccc2)cc1` [25d S], the “ΔG exp (binding energy toward MMP-2)” value at MMP-2 [1] (setting [3]) is -5.396 kcal. Also, the “ΔG exp MMP-1” value at MMP-1 is -4.224 kcal. The “ΔG exp MMP-8” value on MMP-8 was -6.870 kcal. Also, the “ΔG exp MMP-9” value on MMP-9 was -6.705 kcal.
The like results for `Cl.O=S(=O)(N[C@H](CO)Cc1c[nH]cn1)c1ccc(Oc2ccccc2)cc1` [25e S] were, in that order, -5.069 kcal, -4.524 kcal, -4.740 kcal and -5.042 kcal.
As to `CC(=O)NO` [AHA, acetohydroxamic acid, reference compound], the 50% inhibitory concentration (IC50) at MMP-2 [1] (read-out: IC50 (μM ± SD), enzymatic inhibition of MMP-2, catalytic domain of MMP-2, ZBG library, value ± SD) turned out to be 10000 ± 630 µM.
With `NC(CO)CO` [Compound 1a, 2-aminopropane-1,3-diol], the “ΔG exp (binding energy toward MMP-2)” value at MMP-2 [1] (setting [3]) was -4.837 kcal. Also, the half-inhibitory concentration (IC50) against MMP-2 [2] was found to be 280 ± 24 µM.
In the case of `N#CCC(N)CC#N.O=C(O)C(F)(F)F` [Compound 1b, 3-Aminopentanedinitrile Trifluoroacetate], the “ΔG exp (binding energy toward MMP-2)” value on MMP-2 [1] was -4.428 kcal. Besides, the IC50 on MMP-2 [2] is 560 ± 52 µM.
On to `NC(CO)CS` (centres unmarked) [Compound 1d, 2-Amino-3-mercaptopropan-1-ol Trifluoroacetate], for which, at MMP-2 [2], the IC50 amounted to 674 ± 88 µM.
The same measure, in the same setting: in the case of `NC(CO)Cc1c[nH]cn1` (centres unmarked) [Compound 1e, 2-Amino-3-(1H-imidazol-4-yl)propan-1-ol Ditrifluoroacetate] it was 450 ± 23 µM.
Consider `NC(CS)CS.O=C(O)C(F)(F)F` [Compound 1f, 2-Aminopropane-1,3-dithiol Trifluoroacetate], for which the “ΔG exp (binding energy toward MMP-2)” value on MMP-2 [1] was -4.333 kcal. This compound had an IC50 at MMP-2 [2] of 666 ± 90 µM.
With `N#CCC(N)CS` (centres unmarked) [Compound 1h, 3-Amino-4-mercaptobutanenitrile Trifluoroacetate], the midpoint of inhibition at MMP-2 [2], the IC50, lay at 500 ± 49 µM.
Compound `N#CCC(N)CO.O=C(O)C(F)(F)F` (centres unmarked) [Compound 1i, 3-Amino-4-hydroxybutanenitrile Trifluoroacetate] came in with a melting point of 131 to 133 °C. The IC50 on MMP-2 [2] was found to be 807 ± 98 µM.
Compound `[N-]=[N+]=NCC(N)CS` (centres unmarked) [Compound 1j, 2-Amino-3-azidopropane-1-thiol Trifluoroacetate] had an IC50 at MMP-2 [2] of 520 ± 57 µM.
Same read-out and setting: in the case of `[N-]=[N+]=NCC(N)Cc1c[nH]cn1` (centres unmarked) [Compound 1l, 1-Azido-3-(1H-imidazol-4-yl)propan-2-amine Ditrifluoroacetate] it was 480 ± 25 µM.
`O=S(=O)(NC(CO)CO)c1ccc(Oc2ccccc2)cc1` [Compound 25a, N-(1,3-Dihydroxypropan-2-yl)-4-phenoxybenzenesulfonamide]: the “ΔG exp (binding energy toward MMP-2)” value at MMP-2 [1] (setting [3]) is -5.655 kcal. The 50% inhibitory concentration (IC50) against MMP-2 [2] turned out to be 71 ± 1.9 µM. Besides, on MMP-1, the IC50 was found to be 1030 ± 160 µM and the “ΔG exp MMP-1” value was -4.074 kcal. Besides, at MMP-8, the midpoint of inhibition, the IC50, lay at 98 ± 8 µM and the “ΔG exp MMP-8” value was -5.460 kcal. At MMP-9, inhibition was half-maximal at 160 ± 15 µM (IC50) and the “ΔG exp MMP-9” value is -5.178 kcal.
`O=S(=O)(NC(CO)CS)c1ccc(Oc2ccccc2)cc1` (centres unmarked) [Compound 25d, N-(1-Hydroxy-3-mercaptopropan-2-yl)-4-phenoxybenzenesulfonamide]: the IC50 was found to be 110 ± 10 µM on MMP-2 [2], 819 ± 116 µM at MMP-1, 9.1 ± 2.3 µM against MMP-8 and 12 ± 4 µM on MMP-9. Besides, the “fold more potent than 25a on MMP-8” value at MMP-8 (setting [4]) turned out to be 10 fold. The “fold more potent than 25a on MMP-9” value at MMP-9 (setting [4]) came to 13 fold.
As for `O=S(=O)(NC(CO)Cc1c[nH]cn1)c1ccc(Oc2ccccc2)cc1` (centres unmarked) [Compound 25e, N-(1-Hydroxy-3-(1H-imidazol-4-yl)propan-2-yl)-4-phenoxybenzenesulfonamide Hydrochloride], the half-maximal inhibitory concentration (IC50) was 190 ± 8.7 µM against MMP-2 [2], 480 ± 30 µM at MMP-1, 330 ± 21 µM at MMP-8 and 200 ± 15 µM against MMP-9.
